From ChEMBL document CHEMBL5029164, “JNJ-67569762, A 2-Aminotetrahydropyridine-Based Selective BACE1 Inhibitor Targeting the S3 Pocket: From Discovery to Clinical Candidate” (J Med Chem, 2021)
Calls of active or inactive are those of the source. The calls are words filed in the database; no cut-off is given here.

What was measured:
[1] = Metabolic stability in human liver microsomes assessed as intrinsic clearance; assay type: ADME, Microsome; settings: read-out: CLH
Beta-secretase 2 = target: T1, Beta-secretase 2 (Homo sapiens, UniProt Q9Y5Z0); test: Inhibition of BACE2 (unknown origin) using APP harboring Swedish Lys-Met/Asn-Leu mutant-derived peptide as substrate incubated for 2 hrs by FRET assay
T1 sequence (Q9Y5Z0 whole entry): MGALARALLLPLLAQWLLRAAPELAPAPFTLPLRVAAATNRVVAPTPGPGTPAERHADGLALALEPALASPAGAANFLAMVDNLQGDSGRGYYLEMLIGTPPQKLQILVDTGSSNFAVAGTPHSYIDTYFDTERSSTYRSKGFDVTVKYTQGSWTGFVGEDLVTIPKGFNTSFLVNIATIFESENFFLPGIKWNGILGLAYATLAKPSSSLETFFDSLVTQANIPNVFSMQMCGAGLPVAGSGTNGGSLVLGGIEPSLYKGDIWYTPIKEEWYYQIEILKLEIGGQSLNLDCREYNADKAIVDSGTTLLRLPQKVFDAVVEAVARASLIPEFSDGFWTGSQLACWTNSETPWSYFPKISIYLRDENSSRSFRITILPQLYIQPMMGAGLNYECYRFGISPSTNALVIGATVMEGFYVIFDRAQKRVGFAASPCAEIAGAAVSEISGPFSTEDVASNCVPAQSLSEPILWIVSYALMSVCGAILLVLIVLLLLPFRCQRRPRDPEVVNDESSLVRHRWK

Beta-secretase 1 [2] = target: T2, Beta-secretase 1 (Homo sapiens, UniProt P56817); test: Inhibition of BACE1 (1 to 454 residues) (unknown origin) using APP harboring Swedish Lys-Met/Asn-Leu mutant-derived peptide as substrate by FRET assay
T2 sequence (P56817 whole entry, the tested form may be a part): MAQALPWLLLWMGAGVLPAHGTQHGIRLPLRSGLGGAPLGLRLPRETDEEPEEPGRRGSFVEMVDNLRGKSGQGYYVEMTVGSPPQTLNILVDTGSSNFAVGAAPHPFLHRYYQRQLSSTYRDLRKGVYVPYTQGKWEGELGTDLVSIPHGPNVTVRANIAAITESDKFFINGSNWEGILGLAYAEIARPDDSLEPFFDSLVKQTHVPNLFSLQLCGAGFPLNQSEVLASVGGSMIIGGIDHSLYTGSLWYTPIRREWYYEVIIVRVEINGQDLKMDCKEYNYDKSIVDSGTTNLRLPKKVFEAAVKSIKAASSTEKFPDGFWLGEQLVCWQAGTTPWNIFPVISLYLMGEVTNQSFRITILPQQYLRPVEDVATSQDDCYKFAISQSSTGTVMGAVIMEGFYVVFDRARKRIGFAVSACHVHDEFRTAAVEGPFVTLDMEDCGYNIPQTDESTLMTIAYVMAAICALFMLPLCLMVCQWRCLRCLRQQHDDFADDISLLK

Homo sapiens = species on record: Homo sapiens; test: Selectivity index, ratio of IC50 for inhibition of BACE2 (unknown origin) to IC50 for inhibition of BACE1 (1 to 454 residues) (unknown origin)
Beta-secretase 1 [3] = target: T2, Beta-secretase 1; test: Inhibition of BACE1 in human […] cells expressing wild type APP695 assessed as reduction in amyloid beta 42 secretion incubated for 18 hrs by sandwich ELISA; assay type: cell-based, SKNBE2
[4] = Cyanide reactivity in human liver microsomes; assay type: ADME
[5] = Glutathione reactivity in human liver microsomes; assay type: ADME
Mus musculus = test: In vivo inhibition of BACE1 in C57BL/6J mouse assessed as reduction in plasma SEZ6L level at 3.5 to 52 mg/kg,/day administered via diet for 21 days; assay type: functional, organism-based; settings: dose 3.5-52 mg/kg, time 21.0 day

## CC(C)S(=O)(=O)[C@]1(C)CC[C@@](CF)(c2cc(NC(=O)c3cc4c(cn3)OC(F)(F)O4)ccc2F)N=C1N
[1]
  microsomal CLint: < 7.7 µL/min/mg
Beta-secretase 2
  IC50: 0.468 µM
Beta-secretase 1 [2]
  IC50: 0.01 µM
Homo sapiens
  Ratio IC50: 46
Beta-secretase 1 [3]
  IC50: 0.0068 µM

## C[C@@]1(S(C)(=O)=O)CC[C@@](CF)(c2cc(NC(=O)c3cc4c(cn3)OCCCO4)ccc2F)N=C1N
[1]
  microsomal CLint: 16.7 µL/min/mg
Beta-secretase 2
  IC50: 1.15 µM
Beta-secretase 1 [2]
  IC50: 0.028 µM
Homo sapiens
  Ratio IC50: 41
Beta-secretase 1 [3]
  IC50: 0.076 µM

## C[C@@]1(S(C)(=O)=O)CC[C@@](CF)(c2cc(NC(=O)c3cc4c(cn3)OCO4)ccc2F)N=C1N
[1]
  microsomal CLint: 36.4 µL/min/mg
Beta-secretase 2
  IC50: 0.047 µM
Beta-secretase 1 [2]
  IC50: 0.0023 µM
Beta-secretase 1 [3]
  IC50: 0.011 µM

## C[C@@]1(S(C)(=O)=O)CC[C@@](CF)(c2cc(NC(=O)c3cc4c(cn3)OC(F)(F)CO4)ccc2F)N=C1N
[1]
  microsomal CLint: < 7.7 µL/min/mg
[4]
  Activity: Active
[5]
  Activity: Not Active
Beta-secretase 1 [2]
  IC50: 0.0014 µM
Homo sapiens
  Ratio IC50: 48

## COc1cc(C(=O)Nc2ccc(F)c([C@]3(CF)CC[C@@](C)(S(C)(=O)=O)C(N)=N3)c2)ncn1
[1]
  microsomal CLint: < 7.7 µL/min/mg
Beta-secretase 2
  IC50: 0.189 µM
Beta-secretase 1 [2]
  IC50: 0.0095 µM
Homo sapiens
  Ratio IC50: 19
Beta-secretase 1 [3]
  IC50: 0.015 µM

## C[C@@]1(S(C)(=O)=O)CC[C@@](CF)(c2cc(NC(=O)c3cnc(OCF)cn3)ccc2F)N=C1N
Beta-secretase 2
  IC50: 0.016 µM
Beta-secretase 1 [2]
  IC50: 0.002 µM
Beta-secretase 1 [3]
  IC50: 0.0023 µM

## C[C@@]1(S(C)(=O)=O)CC[C@@](CF)(c2cc(NC(=O)c3cc4c(cn3)OCCO4)ccc2F)N=C1N
[1]
  microsomal CLint: 11.3 µL/min/mg
[4]
  Activity: Active
Beta-secretase 2
  IC50: 0.34 µM
[5]
  Activity: Not Active
Beta-secretase 1 [2]
  IC50: 0.0023 µM
Homo sapiens
  Ratio IC50: 145
Homo sapiens; tested as the 2H-labelled form
  Ratio IC50: 102
Beta-secretase 1 [3]
  IC50: 0.003 µM

## C[C@@]1(S(C)(=O)=O)CC[C@@](CF)(c2cc(NC(=O)c3ccc(F)cn3)ccc2F)N=C1N
[1]
  microsomal CLint: < 7.7 µL/min/mg
Beta-secretase 2
  IC50: 0.0031 µM
Beta-secretase 1 [3]
  IC50: 0.0033 µM

## C[C@@]1(S(C)(=O)=O)CC[C@@](CF)(c2cc(NC(=O)c3cc4c(cn3)OC(F)(F)O4)ccc2F)N=C1N
[1]
  microsomal CLint: < 7.7 µL/min/mg
[4]
  Activity: Active
[5]
  Activity: Not Active
Homo sapiens
  Ratio IC50: 38

## C[C@@]1(c2cc(NC(=O)c3ccc(C#N)cn3)ccc2F)C[C@@H](C(F)(F)F)OC(N)=N1
Mus musculus
  inhibition: Active

## [2H]C1([2H])Oc2cnc(C(=O)Nc3ccc(F)c([C@]4(CF)CC[C@@](C)(S(C)(=O)=O)C(N)=N4)c3)cc2OC1([2H])[2H]
[1]
  microsomal CLint: 7.9 µL/min/mg
[4]
  Activity: Active
[5]
  Activity: Not Active

## CCc1cc([C@]2(c3ccc(F)c(-c4cccnc4C(F)F)c3)N=C(N)N(C)C2=O)cc(CC)n1
Beta-secretase 2
  IC50: 6.7 µM
Beta-secretase 1 [2]
  IC50: 0.01 µM
